Laboratory results taken from patent US12331071B2, “Bile acid derivative salt, crystal structure thereof, preparation method therefor and use thereof” (XI'AN BIOCARE PHARMA LTD., priority 2020, dated 2025).
Structures can show the parent of a compound that is named as a salt.

Legend:
[1] = tested on: AMLN diet-induced NASH in ob/ob mice; assay: AMLN diet-induced NASH in ob/ob mice; assay type: in vivo
Experimental: Test method: (1) C57 mice and ob/ob mice were adaptively reared for 1 week. (1) The C57 mice were given LFD diet (normal mouse group), and the ob/ob mice were divided into two groups: (2) 15 mice were given LFD diet (blank control group), and the rest were given AMLN diet (containing 40 kcal % fat, 20 kcal % fructose and 2% cholesterol) for 14 weeks. (2) Sampling for pathology detection: C57+LFD diet group (n=3), ob/ob+ AMLN diet group (n=3), liver lesions were evaluated according to NAFLD activity score to estimate the degree of model construction; the mice in the ob/ob+ AMLN diet group were tested for fasting blood glucose (FBG); and blood was collected from the eye socket. The serum was separated, and ALT and insulin (INS) in the serum were detected. (3) Insulin resistance (HOMA-IR) was calculated according to HOMA-IR═INS(μ/mL)×FBG(mM)/22.5.

[2] = tested on: 17α-Ethinylestradiol (E2-17a) induced cholestasis in rats; assay: 17α-ethinylestradiol (E2-17α) induced cholestasis in rats; assay type: in vivo
Experimental: Experimental method: E2-17α was administered by subcutaneous injection in the neck. The test compounds were administered by gavage for 7 days after modeling. After the last day of administration, the rats were fasted but had access to water. The experiment was performed on the next day, and treatment was performed after 24 h. The rats were anesthetized by intraperitoneal injection of 20% urethane (7 ml/kg). After anesthesia, the rats were fixed on a rat board to make a median abdominal incision from the xiphoid process of the upper abdomen downward, with a 3-4 cm incision. The common bile duct was isolated. A PE-10 polyethylene catheter (inner diameter: 0.28 mm, outer diameter: 0.61 mm) was used for intubation operation of the bile ducts. During the operation, the body […] was maintained between 37° C. and 38° C. with warm lamps and air conditioners to prevent changes in bile flow rate at low temperature. After the intubation was completed, the skin was sutured to prevent the water evaporation from the abdominal cavity. The other end of the bile duct cannula was drawn out and flowed into a fixed 0.2 mL collection tube, to consecutively perform collection every 15 min for 8 times.
Before the experiment, the weight of the bile collection tube was accurately weighed and recorded as B1. After the bile collection was completed in the experiment, the total weight of the bile and the collection tube was weighed and recorded as A2. The weight of bile in the tube was calculated by subtracting B1 from A2, and converted into volume according to 1 g/mL. The amount of bile secretion of rats in each group was expressed as mean±standard deviation (Mean±S.D). Bile Flow Rate (μL/Kg/Min)=(A2−B1)×1000000/Body Weight
The blood samples were allowed to stand for 2 h at room temperature, and centrifuged at 4000 rpm for 15 min. The serum was routinely separated to detect ALT, AST, and ALP. The left serum was aliquoted and frozen at −20° C. for subsequent detection.

[3] = Dynamic vapor sorption (DVS) hygroscopicity analysis; assay type: physicochemical
Experimental: The obtained solid form of the salt was analyzed by dynamic vapor sorption (DVS), using a dynamic vapor sorption analyzer with a model IGA Sorp (Hidentity Isochema). The samples are measured in gradient mode and tested over a humidity range of 0% to 90% with 10% humidity increments for each gradient.
The compound has strong hygroscopicity and is not conducive to preservation. The obtained salt solid form was analyzed by using dynamic vapor sorption (DVS). The hygroscopicity comparison between the hydrochloride salt crystalline form A and the mesylate salt crystalline form C is compared.

[4] = Stability of crystalline form during thermal treatment and grinding (XRPD); assay type: physicochemical
Experimental: The crystalline form A was heated to 100° C. through programmed temperature or kept at 80° C. for 24 h in DSC.
A certain amount of hydrochloride salt crystalline form A was added to a mortar and ground at room temperature for 5 minutes.

[5] = AMLN diet-induced Lep^ob/Lep^ob mice NASH model

## CC[C@@H]1C2C[C@H](O)CC[C@]2(C)C2CC[C@@]3(C)C(CC[C@@H]3[C@H](C)CCO[P@@]3(=O)OCC[C@@H](c4ccncc4)O3)C2[C@@H]1O (stereo partly drawn) [hydrochloride salt of Compound 1]
[1]; [5]
  hepatocyte ballooning: reduce
  intralobular inflammation: reduce
[1]; AMLN diet-induced Lep^ob/Lep^ob mouse NASH model
  total score of NASH model: significantly reduce
[1]; NASH mice
  level of ALT in the serum: significantly reduce
  level of AST in the serum: significantly reduce
  liver fibrosis: significantly reduce
[2]; gavage for 7 days
  strength for promoting bile excretion, compared with the E2-17α group: significantly increased
[2]; gavage for 7 days, hydrochloride salt prepared in Example 3
  effect of promoting bile excretion, compared with Compound 1: superior effect of promoting bile excretion over Compound 1
[2]; versus model group (E2-17α group)
  biliary excretion amount after 120 minutes: still higher than that in the model group

## CC[C@@H]1C2C[C@H](O)CC[C@]2(C)C2CC[C@@]3(C)C(CC[C@@H]3[C@H](C)CCO[P@@]3(=O)OCC[C@@H](c4ccncc4)O3)C2[C@@H]1O.CS(=O)(=O)O (stereo partly drawn) [mesylate salt crystalline form C]
[3]; after moisture absorption
  solid state (XRPD) after DVS: changes to an amorphous form

## CC[C@@H]1C2C[C@H](O)CC[C@]2(C)C2CC[C@@]3(C)C(CC[C@@H]3[C@H](C)CCO[P@@]3(=O)OCC[C@@H](c4ccncc4)O3)C2[C@@H]1O (stereo partly drawn) [hydrochloride salt crystalline form A]
[3]; relative humidity lower than 75%
  Hygroscopicity at low humidity: small
[3]; relative humidity of 80%
  Hygroscopicity (DVS results): hygroscopicity was 3.569%
[3]; versus mesylate salt crystalline form C
  overall hygroscopicity, compared between salt forms: lower than that of mesylate salt crystalline form C
[4]; ground in a mortar at room temperature for 5 minutes
  XRPD after grinding: main diffraction peaks of the obtained samples have not changed
[4]; heated to 100° C. through programmed temperature or kept at 80° C. for 24 h in DSC
  XRPD after thermal treatment: main diffraction peaks of the obtained samples have not change
